Read-outs that look alike come from different tables or passages of the source.
Columns and labels:
Experiment in all cases: biochemical
MMP-13 = molecular target: T1, MMP-13 (Homo sapiens, UniProt P45452)
T1 construct: made in house; host or cells: baculovirus / insect cells
How it was run: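 Assay buffer 100 mM Tris-HCl, 100 mM NaCl, 10 mM CaCl2, pH 7.5. Activated MMP + inhibitor, 5 min RT; then methoxycoumarin peptide substrate, 4 μM final. Readout fluorescence; IC50 calculated.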

MMP-2 = molecular target: T2, MMP-2 (Homo sapiens, UniProt P08253)
T2 construct: made in house; provided by Dr. Gregory Goldberg, Washington University
T2 sequence (P08253 110-660): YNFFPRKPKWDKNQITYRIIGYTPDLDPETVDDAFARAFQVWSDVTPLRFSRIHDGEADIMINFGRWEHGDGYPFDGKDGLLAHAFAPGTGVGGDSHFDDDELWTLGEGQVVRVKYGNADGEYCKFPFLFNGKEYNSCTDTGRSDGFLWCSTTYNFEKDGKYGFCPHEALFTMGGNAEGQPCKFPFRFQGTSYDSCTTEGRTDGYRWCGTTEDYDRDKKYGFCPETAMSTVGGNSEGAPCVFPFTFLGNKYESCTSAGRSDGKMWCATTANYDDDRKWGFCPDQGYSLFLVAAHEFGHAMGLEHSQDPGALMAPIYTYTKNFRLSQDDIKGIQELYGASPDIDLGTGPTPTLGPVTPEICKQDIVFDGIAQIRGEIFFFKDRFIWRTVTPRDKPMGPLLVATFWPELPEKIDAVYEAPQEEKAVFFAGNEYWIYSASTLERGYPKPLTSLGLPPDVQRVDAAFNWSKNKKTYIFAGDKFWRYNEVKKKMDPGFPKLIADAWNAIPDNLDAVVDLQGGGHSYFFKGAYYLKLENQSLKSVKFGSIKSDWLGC
How it was run: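 APMA- or trypsin-activated human MMPs (MMP-1 from transfected HT-1080 cells, MMP-2 from transfected cells) preincubated with inhibitor in 1% DMSO at room temperature, then 4 μM MCA-Pro-Leu-Gly-Leu-Dpa-Ala-Arg-NH2 added in Tris/NaCl/CaCl2 buffer pH 7.5. IC50 from fluorescence reduction versus inhibitor concentration.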

MMP-1 = molecular target: T3, MMP-1 (Homo sapiens, UniProt P03956); details: read-out: MMP-1 IC50
T3 construct: made in house; host or cells: transfected HT-1080 cells (provided by Dr. Harold Welgus, Washington University)
T3 sequence (P03956 100-469): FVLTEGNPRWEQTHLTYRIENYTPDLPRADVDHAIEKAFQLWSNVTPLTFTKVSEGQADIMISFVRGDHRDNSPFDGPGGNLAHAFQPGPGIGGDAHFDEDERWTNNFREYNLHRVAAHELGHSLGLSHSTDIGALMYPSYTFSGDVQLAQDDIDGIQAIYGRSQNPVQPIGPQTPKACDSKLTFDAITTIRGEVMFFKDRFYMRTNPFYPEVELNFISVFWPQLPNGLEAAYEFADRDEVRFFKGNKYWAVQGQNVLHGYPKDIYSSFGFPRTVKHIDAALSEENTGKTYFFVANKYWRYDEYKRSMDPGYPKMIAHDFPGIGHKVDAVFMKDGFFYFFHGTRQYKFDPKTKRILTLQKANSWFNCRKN
How it was run: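 APMA- or trypsin-activated enzymes were preincubated with inhibitor for 5 min at room temperature, then the fluorogenic substrate MCA-Pro-Leu-Gly-Leu-Dpa-Ala-Arg-NH2 was added to a final 4 μM.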

[1] = recombinant human MMP-13, MCA peptide substrate 4 μM, pH 7.5, room temperature, read-out: MMP-13 IC50
[2] = recombinant human MMP-2, MCA peptide substrate 4 μM, pH 7.5, room temperature, read-out: MMP-2 IC50
[3] = recombinant human MMP-1, MCA peptide substrate 4 μM, pH 7.5, room temperature

Row | SMILES | IC50 (MMP-13; [1]) [nM] | IC50 (MMP-2; [2]) [nM] | IC50 (MMP-1; [3]) [nM] | further results
1 | CCCN(CC(=O)N1CCC(C(=O)NO)(S(=O)(=O)c2ccc(Oc3ccc(C(F)(F)F)cc3)cc2)CC1)CC1CC1 [Example 331] | 0.7 | 0.2 | > 10000 | –
2 | CN(C)CCN(C)C(=O)C1CCN(c2ccc(S(=O)(=O)C3(C(=O)NO)CCOCC3)cc2)CC1 [Example 51] | 370 | 7000 | > 10000 | –
3 | O=C(C1CCN(c2ccc(S(=O)(=O)C3(C(=O)NO)CCOCC3)cc2)CC1)N1CCN(c2cnccn2)CC1 [Example 40] | – | – | – | IC50 (MMP-13; MMP-13 IC50 (nM), recombinant human MMP-13, MCA peptide substrate 4 μM, pH 7.5, room temperature): 26.8 nM; IC50 (MMP-2; MMP-2 IC50 (nM)): 900 nM; IC50 (MMP-1): > 10000 nM
4 | COc1ccc(Oc2ccc(S(=O)(=O)C3(C(=O)NO)CCSCC3)cc2)cc1 [Example 146] | – | – | – | IC50 (MMP-13; read-out: MMP-13 IC50): 0.2 nM; IC50 (MMP-2; read-out: MMP-2 IC50): 0.3 nM; IC50 (MMP-1): 3000 nM
5 | CN(C)c1ccc(NC(=O)C2CCN(c3ccc(S(=O)(=O)C4(C(=O)NO)CCOCC4)cc3)CC2)cc1 [Example 78] | 11.7 | 730 | > 10000 | –
6 | Cn1c(=O)n(C2CCN(c3ccc(S(=O)(=O)C4(C(=O)NO)CCOCC4)cc3)CC2)c2ccccc21 [Example 589] | 70 | > 10000 | > 10000 | –
7 | CCOCC1CCCN(c2ccc(S(=O)(=O)C3(C(=O)NO)CCOCC3)cc2)C1 (stereo not drawn) [Example 563] | 70 | 235 | > 10000 | –
8 | O=C(NO)C1(S(=O)(=O)c2ccc(N3CCCCC3CCOCc3cccc(C(F)(F)F)c3)cc2)CCOCC1 (stereo not drawn) [Example 512] | 7700 | > 10000 | > 10000 | –
9 | CCCCOC1CCN(c2ccc(S(=O)(=O)C3(C(=O)NO)CCN(C4CC4)CC3)cc2)CC1 [Example 440] | 26.8 | 240 | > 10000 | –
10 | CN(CCc1ccccc1)C1CCN(c2ccc(S(=O)(=O)C3(C(=O)NO)CCOCC3)cc2)CC1 [Example 584] | 2700 | 3500 | > 10000 | –
11 | COCCN1CCC(C(=O)NO)(S(=O)(=O)c2ccc(N3CCC(C(=O)N4CCc5ccccc54)CC3)cc2)CC1 [Example 246, 4-[[4-[4-[(2,3-Dihydro-1H-indol-1-yl)carbonyl]-1-piperidinyl]-phenyl]sulfonyl]-N-hydroxy-1-(2-methoxyethyl)-4-piperidinecarboxamide, Monohydrate] | 32.7 | 2700 | > 10000 | –
12 | CC(=O)Nc1ccc(Oc2ccc(S(=O)(=O)C3(C(=O)NO)CCN(C4CC4)CC3)cc2)cc1 [Example 378] | 1.7 | 0.3 | 200 | –
13 | COc1ccc(Oc2ccc(S(=O)(=O)C3(C(=O)NO)CCS(=O)(=O)CC3)cc2)cc1 [Example 156] | – | – | – | IC50 (MMP-13; read-out: MMP-13 IC50): 2.2 nM; IC50 (MMP-2; read-out: MMP-2 IC50): 0.45 nM; IC50 (MMP-1): > 10000 nM
14 | Cc1ccc(C(=O)C2CCN(c3ccc(S(=O)(=O)C4(C(=O)NO)CCOCC4)cc3)CC2)cc1 [Example 652] | 0.4 | 82 | > 10000 | –
15 | COc1ccc(COC2CCC(Oc3ccc(S(=O)(=O)C4(C(=O)NO)CCOCC4)cc3)C2)cc1 (stereo not drawn) [Example 648] | 25.8 | 110 | > 10000 | –
16 | C=CCOC1CCN(c2ccc(S(=O)(=O)C3(C(=O)NO)CCOCC3)cc2)CC1 [Example 635] | 13.9 | 260 | > 10000 | –
17 | CCCCSC1CCN(c2ccc(S(=O)(=O)C3(C(=O)NO)CCOCC3)cc2)CC1 [Example 596] | 1.1 | 10.6 | > 10000 | –
18 | CC(C)CCOc1ccc(COC2CCN(c3ccc(S(=O)(=O)C4(C(=O)NO)CCOCC4)cc3)CC2)cc1 [Example 478] | 16.4 | 306 | > 10000 | –
19 | COc1ccc(C2CCN(c3ccc(S(=O)(=O)C4(C(=O)NO)CCOCC4)cc3)CC2)c(C)c1 [Example 823] | – | – | > 10000 | IC50 (MMP-13; MMP-13 IC50 (nM)): 7 nM; IC50 (MMP-2; MMP-2 IC50 (nM)): 505 nM
20 | CC(C)c1ccc(Oc2ccc(S(=O)(=O)C3(C(=O)NO)CCSCC3)cc2)cc1 [Example 148] | 2.5 | 3.7 | > 10000 | –

Row | SMILES | IC50 (MMP-13; [1]) [nM] | IC50 (MMP-2; [2]) [nM] | IC50 (MMP-1; [3]) [nM] | further results
21 | O=C(NO)C1(S(=O)(=O)c2ccc(N3CCCCC3CCOCc3ccccc3)cc2)CCOCC1 (stereo not drawn) [Example 509] | 520 | > 10000 | > 10000 | –
22 | Cc1ccccc1N1CCN(c2ccc(S(=O)(=O)C3(C(=O)NO)CCOCC3)cc2)CC1 [Example 536] | 7.7 | 88 | > 10000 | –
23 | O=C(NO)C1(S(=O)(=O)c2ccc(Oc3ccc(OC(F)(F)F)cc3)cc2)CCN(C(=S)NCCN2CCOCC2)CC1 [Example 199] | 0.2 | < 0.1 | 3000 | –
24 | CCOCc1ccc(COC2CCN(c3ccc(S(=O)(=O)C4(C(=O)NO)CCOCC4)cc3)CC2)cc1 [Example 472] | 4 | 200 | > 10000 | –
25 | N#Cc1cc(F)cc(OC2CCN(c3ccc(S(=O)(=O)C4(C(=O)NO)CCOCC4)cc3)CC2)c1 [Example 474] | 12.1 | 300 | > 10000 | –
26 | O=C(NO)C1(S(=O)(=O)c2ccc(N3CCN(c4ccccc4Cl)CC3)cc2)CCOCC1 [Example 88] | 9 | 40 | > 10000 | –
27 | CC(C)CC(=O)C1CCN(c2ccc(S(=O)(=O)C3(C(=O)NO)CCOCC3)cc2)CC1 [Example 756] | 7 | 28.8 | > 10000 | –
28 | O=C(NO)C1(S(=O)(=O)c2ccc(N3CCc4ccccc4C3)cc2)CCN(C2CC2)CC1 [Example 455] | 6.3 | 26.8 | > 10000 | –
29 | O=C(NO)C1(S(=O)(=O)c2ccc(N3CCC(OCc4ccc(OC(F)(F)F)cc4)CC3)cc2)CCOCC1 [Example 175] | 2.5 | 290 | > 10000 | –
30 | CN(C(=O)C1CCN(c2ccc(S(=O)(=O)C3(C(=O)NO)CCOCC3)cc2)CC1)c1ccccc1 [Example 60] | 13.9 | 3700 | > 10000 | –
31 | O=C(NO)C1(S(=O)(=O)c2ccc(N3CCC(OCc4ccc(Cl)cc4)CC3)cc2)CCN(C2CC2)CC1 [Example 419] | 4.2 | 400 | > 10000 | –
32 | CC1CC(C)CN(C(=O)C2CCN(c3ccc(S(=O)(=O)C4(C(=O)NO)CCN(C(=O)CNCCN(C)C)CC4)cc3)CC2)C1 (stereo not drawn) [Example 289] | 50 | > 10000 | > 10000 | –
33 | CN(C)Cc1ccc(COC2CCN(c3ccc(S(=O)(=O)C4(C(=O)NO)CCOCC4)cc3)CC2)cc1 [Example 566] | 15.8 | 57.1 | > 10000 | –
34 | CCOc1ccccc1N1CCN(C(=O)C2CCN(c3ccc(S(=O)(=O)C4(C(=O)NO)CCOCC4)cc3)CC2)CC1 [Example 24] | – | – | – | IC50 (MMP-13; read-out: MMP-13 IC50): 23.5 nM; IC50 (MMP-2; read-out: MMP-2 IC50): 4500 nM; IC50 (MMP-1): > 10000 nM
35 | C=CCCC(=O)C1CCN(c2ccc(S(=O)(=O)C3(C(=O)NO)CCOCC3)cc2)CC1 [Example 758] | 5 | 34.7 | > 10000 | –
36 | CC(C)(C)c1ccc(C(=O)C2CCN(c3ccc(S(=O)(=O)C4(C(=O)NO)CCOCC4)cc3)CC2)cc1 [Example 789] | 12.2 | 3700 | – | IC50 (MMP-1): > 10000 nM
37 | COc1ccc(CCCOC2CCN(c3ccc(S(=O)(=O)C4(C(=O)NO)CCOCC4)cc3)CC2)cc1OC [Example 811] | 14.8 | 110 | > 10000 | –
38 | O=C(C1CCN(c2ccc(S(=O)(=O)C3(C(=O)NO)CCOCC3)cc2)CC1)N1CCN(c2ccc(C(F)(F)F)cc2[N+](=O)[O-])CC1 [Example 32] | – | – | – | IC50 (MMP-13; read-out: MMP-13 IC50): 10 nM; IC50 (MMP-2; read-out: MMP-2 IC50): 800 nM; IC50 (MMP-1): > 10000 nM
39 | O=C(NO)C1(S(=O)(=O)c2ccc(N3CCC(Oc4ccc5c(c4)CCCC5)CC3)cc2)CCOCC1 [Example 483] | 32.6 | 10.6 | > 10000 | –

— patent publication US6750228B1, “Aromatic sulfone hydroxamic acid metalloprotease inhibitor” (priority 1997, dated 2004)
